Data as given in publication PMC6488552, “Pharmacokinetic and Pharmacodynamic Properties of a Micro-Dose Nasal Spray Formulation of Desmopressin (AV002) in Healthy Water-Loaded Subjects” (Pharmaceutical Research, 2019).

What was measured:
[1] = in vivo, cited from earlier work
clinical = conditions: human, in vivo
Procedure: Each subject was dosed 4 times over 1 week with dosing occurring every other day. Doses of AV002 were administered at 0.5, 1.0, and 2.0 μg intranasally.
On Days 1, 3 and 5, subjects were dosed intranasally with escalating doses of AV002 nasal spray. On Day 7, 6 subjects were given a single SC bolus injection of desmopressin. Pharmacodynamic and pharmacokinetic metrics were evaluated at each dose level.
Plasma samples were analyzed using a validated radioimmunoassay assay (Celerion Switzerland AG) for desmopressin with a lower limit of quantification (LLOQ) of 2.5 pg/mL and upper limit of quantitation of 160 pg/mL. A 1.25 pg/mL calibration standard was included in the assay runs and concentrations between 1.25 and 2.5 pg/mL were reported out even though they were below the nominal LLOQ.
Pharmacokinetic variables were generally analyzed using model-independent methods. A single compartment model with first order absorption was used to qualitatively assess the impact of probable pharmacokinetic behavior of desmopressin when concentrations declined below the assay lower limit of quantification.
Pharmacokinetic calculations were performed using built in functions in the Excel 2003 component of Microsoft Office 2003 (Microsoft, Redmond, WA). The correctness of the calculation techniques was confirmed by comparison to output from WinNonlin 4.0.1 (Pharsight Corporation, Sunnyvale, CA). Summary statistics, graphs and figures were generated using built in functions and features of Excel 2003.
Pharmacokinetic samples were collected at pre-dose and 0.083, 0.167, 0.25, 0.50, 0.75, 1.05, 1.50, 2.05, 3.05, 4.05, and 6.05 h post dose each dosing day.

- half-life (clinical): 90 min
- mean Tmax (clinical; sc): 53 min
- CL/F (clinical; sc, 0.12 ug): 227 mL/min
- AUC(0-inf) (clinical; sc, 0.12 ug, SD): 0.0102 ± 0.0049 ng·h/mL
- Tmax (clinical; sc, 0.12 ug, SD): 53 ± 20.9 min
SMILES: NC(=O)CC[C@@H]1NC(=O)[C@H](Cc2ccccc2)NC(=O)[C@H](Cc2ccc(O)cc2)NC(=O)CCSSC[C@@H](C(=O)N2CCC[C@H]2C(=O)N[C@H](CCCN=C(N)N)C(=O)NCC(N)=O)NC(=O)[C@H](CC(N)=O)NC1=O [Desmopressin, desmopressin]
- intranasal bioavailability ([1]; human): 3.4%
- relative bioavailability of intranasal administration, of SC injection [1]: approximately 2%
